From US6534520B2, “Antiviral compounds” (priority 1997, dated 2003)

Legend:
Influenza A = experiment: microbe, parasite or virus in culture; assay type: cell-based
PBMCs = experiment: Cytotoxicity in PBMCs (anti-HIV tests); assay type: cell-based; settings: for HIVTEKI (PBMCs) CC50: HIVTEKI columns
HIVROJO = experiment: Anti-HIV activity against HIVROJO in PBMCs; assay type: cell-based; settings: HIVROJO, PBMCs
Adenovirus = experiment: Antiviral activity against Adenovirus (CPE inhibition / neutral red); assay type: cell-based; settings: Adenovirus
uninfected cells [1] = test system: uninfected cells
Rhinovirus (RV) = experiment: Antiviral activity against Rhinovirus (CPE inhibition / neutral red); assay type: cell-based; settings: Rhinovirus
Influenza B = experiment: microbe, parasite or virus in culture; assay type: cell-based; settings: Influenza B
uninfected cells [2] = test system: uninfected cells; remark: listed apart in the source
uninfected cells [3] = experiment: Cytotoxicity run with the Influenza B test; assay type: cell-based
Method: (§1) Methods For Assay Of Cytotoxicity
(§2) In the CPE inhibition test, two wells of uninfected cells treated with each concentration of test Compound are run in parallel with the infected, treated wells. At the time CPE is determined microscopically, the toxicity control cells are also examined microscopically for any changes in cell appearance compared to normal control cells run in the same plate. These changes may be enlargement, granularity, cells with ragged edges, a filmy appearance, rounding, detachment from the surface of the well, or other changes. These changes are given a designation of T (100% toxic), PVH (partially toxic-very heavy-80%), PH (partially toxic-heavy-60%), P (partially toxic-40%), PS (partially toxic-slight-20%), or 0 (no toxicity-0%), conforming to the degree of cytotoxicity seen.
(§3) In the neutral red dye uptake phase of the antiviral test described above, the two toxicity control wells also receive neutral red and the degree of color intensity is determined spectrophotometrically. A neutral red CC50 (NRCC50) is subsequently determined.
(§4) C. ^3H Thymidine Uptake Assay
(§5) Flat bottom 96 well plates are plated with 5X10E3 Vero-34 cells/well and 1X10E4 Hs68 or Wi-38 cells/well respectively and incubated overnight at 37° C. and 5% CO2/air. After incubation, the supernatant medium is removed and replaced with test Compound dilutions in 2% DMEM (150 ul). The cells are then incubated 48 hours in a 5% CO2 incubator at 37° C.
(§6) 50 μl/well of 10 uCi/ml solution of [3H]-methyl thymidine (specific activity of approx. 2Ci/mmol) is added to the culture medium and incubated overnight (18 hours) in a 5% CO2 incubator at 37° C.
(§7) Cells are then collected onto a fiberglass filter (Printed Filtermat A 1450-421 Wallac) with a Tomtec cell harvester. Suspended cells are collected directly onto filter while for adherent cells, the medium is first removed, then the cells washed with PBS and trypsinized for 2-3 minutes (50 μl trypsin/well) before collecting.
(§8) Filters are dried for 1 hour at 37-40° C. and then placed into bags (1450-microbeta #1450-432 Wallac) with 4.5 ml of Betascint and counts obtained with Microbeta 1450 Wallac (protocol 1).
(§9) The percent of cell proliferation is determined by comparison to the control (no test Compound) and thereby establishing 50% inhibitory concentration is established.

HSV-1 = experiment: Antiviral activity against HSV-1 (CPE inhibition / neutral red); assay type: cell-based, herpes simplex virus type 1; settings: HSV-1
uninfected cells [4] = test system: uninfected cells; remark: listed apart in the source
HIVTEKI = experiment: Anti-HIV activity against HIVTEKI in PBMCs; settings: HIVTEKI, PBMCs
[5] = test system: Respiratory Syncitial Virus (RSV); experiment: Antiviral activity against RSV (CPE inhibition / neutral red); assay type: cell-based; settings: RSV
uninfected cells [6] = test system: uninfected cells; remark: listed apart in the source
Parainfluenza = experiment: Antiviral activity against Parainfluenza (CPE inhibition / neutral red); assay type: cell-based; settings: Parainfluenza
uninfected cells [7] = test system: uninfected cells; remark: listed apart in the source
HSV-2 = experiment: Antiviral activity against HSV-2 (CPE inhibition / neutral red); assay type: cell-based, herpes simplex virus type 2; settings: HSV-2
uninfected cells [8] = experiment: Cytotoxicity run with the Influenza A test; assay type: cell-based
Method: as §1, §2, §3, §4, §5, §6, §7, §8, §9

uninfected cells [9] = experiment: Cytotoxicity run with the Adenovirus test; settings: cytotoxicity, Adenovirus test

| SMILES | INFLUENZA A IC50 (Influenza A) | HIVROJO (PBMCs) CC50 (PBMCs) | HIVROJO (PBMCs) IC50 (HIVROJO) | ADENOVIRUS IC50 (Adenovirus) | PARAINFLUENZA CC50 (uninfected cells [1]) | RV IC50 (Rhinovirus (RV)) | INFLUENZA B IC50 (Influenza B) | RSV CC50 (uninfected cells [2]) | INFLUENZA B CC50 (uninfected cells [3]) | HSV-1 IC50 (HSV-1) | RV CC50 (uninfected cells [4]) | HIVTEKI (PBMCs) IC50 (HIVTEKI) | RSV IC50 [5] | HSV-1 CC50 (uninfected cells [6]) | PARAINFLUENZA IC50 (Parainfluenza) | HSV-2 CC50 (uninfected cells [7]) | HSV-2 IC50 (HSV-2) | INFLUENZA A CC50 (uninfected cells [8]) | HIVTEKI (PBMCs) CC50 (PBMCs) | ADENOVIRUS CC50 (uninfected cells [9]) | also measured |
| --- | --- | --- | --- | --- | --- | --- | --- | --- | --- | --- | --- | --- | --- | --- | --- | --- | --- | --- | --- | --- | --- |
| CCCOc1ccccc1CNC(=O)c1ccc2cnccc2n1 [#26, N-(2-propoxybenzyl)-2-[1,6]naphthyridine-2-carboxamide] | 5.6 µg/mL | 6.0 µg/mL | 4.1 µg/mL | 4 µg/mL | 2 µg/mL | < 0.01 µg/mL | 3.2 µg/mL | 3 µg/mL | 5.6 µg/mL | 0.36 µg/mL | 4 µg/mL | 0.3 µg/mL | 4 µg/mL | 3.2 µg/mL | 4 µg/mL | 1.9 µg/mL | 0.19 µg/mL | 5.6 µg/mL | – | – | – |
| COc1ccccc1CNC(=O)C1=Cc2ccncc2CC1 [#32, 7,8-dihydroisoquinolin-6-carboxylic acid 2′-methoxybenzylamide] | 60 µg/mL | >64 µg/mL | 45 µg/mL | > 100 µg/mL | 20 µg/mL | 10 µg/mL | 56 µg/mL | 30 µg/mL | – | 5.5 µg/mL | 25 µg/mL | – | 50 µg/mL | 14 µg/mL | – | 29.0 µg/mL | 15 µg/mL | 67 µg/mL | >64 µg/mL | 80 µg/mL | – |
| CC(C)Oc1ccccc1NC(=O)Nc1ccc2cnccc2n1 [#46, 1-(2-iso-propoxy-phenyl)-3-[1,6]naphthyridin-2-yl-urea;] | >32 µg/mL | >100 µg/mL | 3.2 µg/mL | > 30 µg/mL | 30 µg/mL | 1 µg/mL | > 32 µg/mL | 30 µg/mL | > 22 µg/mL | >100 µg/mL | > 30 µg/mL | 4.3 µg/mL | >30 µg/mL | >100 µg/mL | > 30 µg/mL | – | – | 19 µg/mL | >100 µg/mL | > 30 µg/mL | – |
| COc1ccccc1CNC(=O)c1nc2ccncc2s1 [#59, Thiazolo[5,4-c]pyridine-2-carboxylic acid-2-methoxybenzylamide] | – | – | – | – | – | – | – | – | – | – | – | – | – | – | – | – | – | – | – | – | HCMV IC50 (HCMV): ˜10 μg/ml |
| C[C@H](NC(=O)c1nc2ccncc2s1)c1ccccc1 [#62, Thiazolo[5,4-c]pyridine-2-carboxylic acid(1(S)-phenyl-ethyl)amide] | – | – | – | – | – | – | – | – | – | – | – | – | – | – | – | – | – | – | – | – | HCMV IC50 (HCMV): ˜1 μg/ml |
